Source: PubChem BioAssay (NCI)
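Tested at 5 concentrations; 48 h exposure; 96-well plates; endpoints linearly interpolated, else capped at highest concentration. GI50 marks 50% less growth. TGI is the concentration that stops growth completely.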

Key:
Test in all cases: growth of human tumour cells (NCI), 48 h
NCI/ADR-RES ovarian = tested on: NCI/ADR-RES ovarian
UACC-257 melanoma = tested on: UACC-257 melanoma
HCC-2998 colon = tested on: HCC-2998 colon
A549 NSCLC = tested on: A549 NSCLC
PC-3 prostate = tested on: PC-3 prostate
BT-549 breast = tested on: BT-549 breast
MOLT-4 leukemia = tested on: MOLT-4 leukemia
RPMI-8226 leukemia = tested on: RPMI-8226 leukemia
NCI-H226 lung = tested on: NCI-H226 lung
SF-295 CNS = tested on: SF-295 CNS
A498 renal = tested on: A498 renal
UO-31 renal = tested on: UO-31 renal
CAKI-1 renal = tested on: CAKI-1 renal
CCRF-CEM leukemia = tested on: CCRF-CEM leukemia
T-47D breast = tested on: T-47D breast
K-562 leukemia = tested on: K-562 leukemia
SK-MEL-5 melanoma = tested on: SK-MEL-5 melanoma
OVCAR-8 ovarian = tested on: OVCAR-8 ovarian
SNB-19 CNS = tested on: SNB-19 CNS
COLO 205 colon = tested on: COLO 205 colon
M14 melanoma = tested on: M14 melanoma
NCI-H522 lung = tested on: NCI-H522 lung
NCI-H23 lung = tested on: NCI-H23 lung
HS 578T breast = tested on: HS 578T breast
TK-10 renal = tested on: TK-10 renal
SF-268 CNS = tested on: SF-268 CNS
OVCAR-3 ovarian = tested on: OVCAR-3 ovarian
HCT-116 colon = tested on: HCT-116 colon
OVCAR-4 ovarian = tested on: OVCAR-4 ovarian
RXF 393 renal = tested on: RXF 393 renal
SR leukemia = tested on: SR leukemia
OVCAR-5 ovarian = tested on: OVCAR-5 ovarian
HOP-92 NSCLC = tested on: HOP-92 NSCLC
SK-MEL-28 melanoma = tested on: SK-MEL-28 melanoma
MDA-MB-435 = tested on: MDA-MB-435
786-0 renal = tested on: 786-0 renal
SK-OV-3 ovarian = tested on: SK-OV-3 ovarian
HCT-15 colon = tested on: HCT-15 colon
SN12C renal = tested on: SN12C renal
MDA-MB-231 breast = tested on: MDA-MB-231 breast
IGROV1 ovarian = tested on: IGROV1 ovarian
HOP-62 NSCLC = tested on: HOP-62 NSCLC
KM12 colon = tested on: KM12 colon
DU-145 prostate = tested on: DU-145 prostate
SW-620 colon = tested on: SW-620 colon
EKVX NSCLC = tested on: EKVX NSCLC
MCF7 breast = tested on: MCF7 breast
LOX IMVI melanoma = tested on: LOX IMVI melanoma
MALME-3M melanoma = tested on: MALME-3M melanoma
U251 CNS = tested on: U251 CNS
UACC-62 melanoma = tested on: UACC-62 melanoma
NCI-H460 lung = tested on: NCI-H460 lung
SK-MEL-2 melanoma = tested on: SK-MEL-2 melanoma
SNB-75 CNS = tested on: SNB-75 CNS
HT29 colon = tested on: HT29 colon
SF-539 CNS = tested on: SF-539 CNS
HL-60(TB) leukemia = tested on: HL-60(TB) leukemia
ACHN renal = tested on: ACHN renal

In the case of `CC1=C(CCC=NNC(N)=O)C2=C(C)C3(CC3)[C@@](C)(O)C(=O)C2=C1`, the GI50 (NCI/ADR-RES ovarian) is reported as 420 nM, the TGI (NCI/ADR-RES ovarian) is reported as 4580 nM and the GI50 (UACC-257 melanoma) is reported as 538 nM. It also gave a TGI (UACC-257 melanoma) of 2130 nM, a GI50 (HCC-2998 colon) of 350 nM and a TGI (HCC-2998 colon) of 1150 nM. For the same compound, the GI50 (A549 NSCLC) was 281 nM, the TGI (A549 NSCLC) was 1350 nM and the GI50 (PC-3 prostate) was 528 nM. The TGI (PC-3 prostate) was 5240 nM, the GI50 (BT-549 breast) was 226 nM and the TGI (BT-549 breast) was 695 nM. The GI50 (MOLT-4 leukemia) was 2790 nM, the TGI (MOLT-4 leukemia) was 20900 nM and the GI50 (RPMI-8226 leukemia) was 5580 nM. It also gave a TGI (RPMI-8226 leukemia) of 32600 nM, a GI50 (NCI-H226 lung) of 421 nM and a TGI (NCI-H226 lung) of 3810 nM. The GI50 (SF-295 CNS) was 289 nM, the TGI (SF-295 CNS) was 1150 nM and the GI50 (A498 renal) was 317 nM. It also gave a TGI (A498 renal) of 902 nM, a GI50 (UO-31 renal) of 160 nM and a TGI (UO-31 renal) of 373 nM. For the same compound, the GI50 (CAKI-1 renal) was 281 nM, the TGI (CAKI-1 renal) was 2800 nM and the GI50 (CCRF-CEM leukemia) was 3930 nM. It also gave a TGI (CCRF-CEM leukemia) of 26200 nM, a GI50 (T-47D breast) of 245 nM and a TGI (T-47D breast) of 1480 nM. For the same compound, the GI50 (K-562 leukemia) was 3430 nM, the TGI (K-562 leukemia) was 17800 nM and the GI50 (SK-MEL-5 melanoma) was 231 nM. For the same compound, the TGI (SK-MEL-5 melanoma) was 617 nM, the GI50 (OVCAR-8 ovarian) was 238 nM and the TGI (OVCAR-8 ovarian) was 926 nM. For the same compound, the GI50 (SNB-19 CNS) was 717 nM, the TGI (SNB-19 CNS) was 7860 nM and the GI50 (COLO 205 colon) was 230 nM. It also gave a TGI (COLO 205 colon) of 647 nM, a GI50 (M14 melanoma) of 196 nM and a TGI (M14 melanoma) of 449 nM. It also gave a GI50 (NCI-H522 lung) of 515 nM, a TGI (NCI-H522 lung) of 1960 nM and a GI50 (NCI-H23 lung) of 174 nM. The TGI (NCI-H23 lung) was 743 nM, the GI50 (HS 578T breast) was 1860 nM and the TGI (HS 578T breast) was 6280 nM. It also gave a GI50 (TK-10 renal) of 318 nM, a TGI (TK-10 renal) of 1610 nM and a GI50 (SF-268 CNS) of 318 nM. For the same compound, the TGI (SF-268 CNS) was 4570 nM, the GI50 (OVCAR-3 ovarian) was 415 nM and the TGI (OVCAR-3 ovarian) was 3250 nM. For the same compound, the GI50 (HCT-116 colon) was 272 nM, the TGI (HCT-116 colon) was 2480 nM and the GI50 (OVCAR-4 ovarian) was 439 nM. The TGI (OVCAR-4 ovarian) was 1700 nM, the GI50 (RXF 393 renal) was 145 nM and the TGI (RXF 393 renal) was 306 nM. The GI50 (SR leukemia) was 2580 nM, the TGI (SR leukemia) was 61800 nM and the GI50 (OVCAR-5 ovarian) was 325 nM. The TGI (OVCAR-5 ovarian) was 1420 nM, the GI50 (HOP-92 NSCLC) was 238 nM and the TGI (HOP-92 NSCLC) was 702 nM. For the same compound, the GI50 (SK-MEL-28 melanoma) was 700 nM, the TGI (SK-MEL-28 melanoma) was 2150 nM and the GI50 (MDA-MB-435) was 1320 nM. For the same compound, the TGI (MDA-MB-435) was 3250 nM, the GI50 (786-0 renal) was 232 nM and the TGI (786-0 renal) was 623 nM. The GI50 (SK-OV-3 ovarian) was 246 nM, the TGI (SK-OV-3 ovarian) was 666 nM and the GI50 (HCT-15 colon) was 281 nM. It also gave a TGI (HCT-15 colon) of 1320 nM, a GI50 (SN12C renal) of 369 nM and a TGI (SN12C renal) of 2500 nM. It also gave a GI50 (MDA-MB-231 breast) of 412 nM, a TGI (MDA-MB-231 breast) of 2000 nM and a GI50 (IGROV1 ovarian) of 248 nM. It also gave a TGI (IGROV1 ovarian) of 1270 nM, a GI50 (HOP-62 NSCLC) of 234 nM and a TGI (HOP-62 NSCLC) of 753 nM. For the same compound, the GI50 (KM12 colon) was 1640 nM, the TGI (KM12 colon) was 5380 nM and the GI50 (DU-145 prostate) was 120 nM. For the same compound, the TGI (DU-145 prostate) was 5030 nM, the GI50 (SW-620 colon) was 5790 nM and the TGI (SW-620 colon) was 19600 nM. For the same compound, the GI50 (EKVX NSCLC) was 1440 nM, the TGI (EKVX NSCLC) was 6160 nM and the GI50 (MCF7 breast) was 426 nM. The TGI (MCF7 breast) was 12100 nM, the GI50 (LOX IMVI melanoma) was 457 nM and the TGI (LOX IMVI melanoma) was 2110 nM. The GI50 (MALME-3M melanoma) was 316 nM, the TGI (MALME-3M melanoma) was 913 nM and the GI50 (U251 CNS) was 440 nM. For the same compound, the TGI (U251 CNS) was 4190 nM, the GI50 (UACC-62 melanoma) was 488 nM and the TGI (UACC-62 melanoma) was 1310 nM. For the same compound, the GI50 (NCI-H460 lung) was 159 nM, the TGI (NCI-H460 lung) was 3740 nM and the GI50 (SK-MEL-2 melanoma) was 520 nM. For the same compound, the TGI (SK-MEL-2 melanoma) was 1030 nM, the GI50 (SNB-75 CNS) was 253 nM and the TGI (SNB-75 CNS) was 748 nM. The GI50 (HT29 colon) was 351 nM, the TGI (HT29 colon) was 1900 nM and the GI50 (SF-539 CNS) was 225 nM. For the same compound, the TGI (SF-539 CNS) was 614 nM, the GI50 (HL-60(TB) leukemia) was 274 nM and the TGI (HL-60(TB) leukemia) was 1770 nM. It also gave a GI50 (ACHN renal) of 250 nM and a TGI (ACHN renal) of 695 nM.
